# In the supplement of paper PMC10307832:
# Assays:
# Assay in all cases: relative viability (nuclei count vs DMSO), 5 days (fraction); higher = more cells survive
# [1] = compound: CCN1C(=O)C2=CC(=C(N=C2N(C1=O)C3CC3)N)C(=O)N + CC(=O)Nc1cccc(-n2c(=O)n(C3CC3)c(=O)c3c(Nc4ccc(I)cc4F)n(C)c(=O)c(C)c32)c1 [Trametinib] (partner 0.02 µM)
# How it was run: (§1)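 Relative viability was taken as the ratio of nuclei in treated wells to nuclei in vehicle wells. Lung cancer cell lines in 1536-well plates received compounds by pin tool one day after seeding, either one drug alone or a fixed anchor-drug dose plus five library-drug doses (not always all listed) in √10 steps. Nuclei were counted on 4× images after 5 days of treatment, and values are medians of duplicate plates.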
# [2] = compound: CCN1C(=O)C2=CC(=C(N=C2N(C1=O)C3CC3)N)C(=O)N + CC(=O)c1c(C)c2cnc(Nc3ccc(N4CCNCC4)cn3)nc2n(C2CCCC2)c1=O [Palbociclib] (partner 0.5 µM)
# How it was run: as §1
# [3] = compound: CCN1C(=O)C2=CC(=C(N=C2N(C1=O)C3CC3)N)C(=O)N + CCNC(=O)c1noc(-c2cc(C(C)C)c(O)cc2O)c1-c1ccc(CN2CCOCC2)cc1 [Luminespib] (partner 0.01 µM)
# How it was run: as §1
# [4] = compound: CCN1C(=O)C2=CC(=C(N=C2N(C1=O)C3CC3)N)C(=O)N + CS(=O)(=O)CCNCc1ccc(-c2ccc3ncnc(Nc4ccc(OCc5cccc(F)c5)c(Cl)c4)c3c2)o1 [Lapatinib] (partner 2 µM)
# How it was run: as §1
# [5] = compound: CCN1C(=O)C2=CC(=C(N=C2N(C1=O)C3CC3)N)C(=O)N + CS(=O)(=O)N1CCN(Cc2cc3nc(-c4cccc5[nH]ncc45)nc(N4CCOCC4)c3s2)CC1 [Pictilisib] (partner 1 µM)
# How it was run: as §1
Cell Line,relative viability ([1]; first compound 0.253 µM),relative viability ([1]; first compound 0.8 µM),relative viability ([1]; first compound 2.53 µM),relative viability ([1]; first compound 8 µM),relative viability ([2]; first compound 0.253 µM),relative viability ([2]; first compound 0.8 µM),relative viability ([2]; first compound 2.53 µM),relative viability ([2]; first compound 8 µM),relative viability ([3]; first compound 0.253 µM),relative viability ([3]; first compound 0.8 µM),relative viability ([3]; first compound 2.53 µM),relative viability ([3]; first compound 8 µM),relative viability ([4]; first compound 0.253 µM),relative viability ([4]; first compound 0.8 µM),relative viability ([4]; first compound 2.53 µM),relative viability ([4]; first compound 8 µM),relative viability ([5]; first compound 0.253 µM),relative viability ([5]; first compound 0.8 µM),relative viability ([5]; first compound 2.53 µM),relative viability ([5]; first compound 8 µM)
NCI-H460,0.226,0.13,0.13,0.13,0.22,0.151,0.115,0.192,0.0334,0.0279,0.0363,0.037,1.04,1.07,0.902,1.02,0.372,0.339,0.461,0.341
NCI-H520,0.65,0.692,0.657,0.676,0.24,0.228,0.185,0.203,0.236,0.201,0.246,0.3,0.898,0.907,0.957,0.941,0.273,0.302,0.317,0.27
NCI-H647,0.521,0.442,0.418,0.389,0.434,0.356,0.328,0.355,0.16,0.129,0.18,0.14,1.09,1.13,0.992,1.13,0.424,–,0.432,0.462
NCI-H650,0.994,0.929,0.905,1.04,0.363,0.299,0.342,0.334,0.66,0.821,0.712,0.78,1.03,0.883,1.07,0.872,0.997,0.922,0.684,0.893
NCI-H661,0.591,0.567,0.546,0.561,0.391,0.389,0.39,0.4,0.922,0.904,0.898,0.904,0.526,0.631,0.428,0.5,0.401,0.368,0.45,0.395
NCI-H727,0.39,0.436,0.422,0.386,0.642,0.616,0.605,0.553,0.238,0.309,0.394,0.321,0.925,0.69,0.814,0.857,0.441,0.375,0.428,0.508
NCI-H838,0.55,0.573,0.511,0.474,0.251,0.216,0.215,0.213,0.262,0.334,0.214,0.336,0.948,1.02,0.916,0.896,0.468,0.41,0.437,0.503
NCI-H1355,0.429,0.387,0.383,0.438,0.418,0.358,0.396,0.395,0.652,0.887,0.761,0.753,1.08,1.06,0.998,1.01,0.324,0.513,0.419,0.505
